Consider 39 compounds from patent US10077243B2, “Compounds for treating disorders mediated by metabotropic glutamate receptor 5, and methods of use thereof” (Sunovion Pharmaceuticals Inc., priority 2009, dated 2018).

The target of the first test is T1, human mGluR5 (Homo sapiens, UniProt P41594).
T1 construct: expressed in transfected cells; host or cells: HEK293 cells stably expressing rat GLAST (EAAT1), stably transfected with pcDNAzeo3.1 carrying synthetic human mGluR5 DNA; zeocin-selected single clones
T1 sequence (P41594 21-1212): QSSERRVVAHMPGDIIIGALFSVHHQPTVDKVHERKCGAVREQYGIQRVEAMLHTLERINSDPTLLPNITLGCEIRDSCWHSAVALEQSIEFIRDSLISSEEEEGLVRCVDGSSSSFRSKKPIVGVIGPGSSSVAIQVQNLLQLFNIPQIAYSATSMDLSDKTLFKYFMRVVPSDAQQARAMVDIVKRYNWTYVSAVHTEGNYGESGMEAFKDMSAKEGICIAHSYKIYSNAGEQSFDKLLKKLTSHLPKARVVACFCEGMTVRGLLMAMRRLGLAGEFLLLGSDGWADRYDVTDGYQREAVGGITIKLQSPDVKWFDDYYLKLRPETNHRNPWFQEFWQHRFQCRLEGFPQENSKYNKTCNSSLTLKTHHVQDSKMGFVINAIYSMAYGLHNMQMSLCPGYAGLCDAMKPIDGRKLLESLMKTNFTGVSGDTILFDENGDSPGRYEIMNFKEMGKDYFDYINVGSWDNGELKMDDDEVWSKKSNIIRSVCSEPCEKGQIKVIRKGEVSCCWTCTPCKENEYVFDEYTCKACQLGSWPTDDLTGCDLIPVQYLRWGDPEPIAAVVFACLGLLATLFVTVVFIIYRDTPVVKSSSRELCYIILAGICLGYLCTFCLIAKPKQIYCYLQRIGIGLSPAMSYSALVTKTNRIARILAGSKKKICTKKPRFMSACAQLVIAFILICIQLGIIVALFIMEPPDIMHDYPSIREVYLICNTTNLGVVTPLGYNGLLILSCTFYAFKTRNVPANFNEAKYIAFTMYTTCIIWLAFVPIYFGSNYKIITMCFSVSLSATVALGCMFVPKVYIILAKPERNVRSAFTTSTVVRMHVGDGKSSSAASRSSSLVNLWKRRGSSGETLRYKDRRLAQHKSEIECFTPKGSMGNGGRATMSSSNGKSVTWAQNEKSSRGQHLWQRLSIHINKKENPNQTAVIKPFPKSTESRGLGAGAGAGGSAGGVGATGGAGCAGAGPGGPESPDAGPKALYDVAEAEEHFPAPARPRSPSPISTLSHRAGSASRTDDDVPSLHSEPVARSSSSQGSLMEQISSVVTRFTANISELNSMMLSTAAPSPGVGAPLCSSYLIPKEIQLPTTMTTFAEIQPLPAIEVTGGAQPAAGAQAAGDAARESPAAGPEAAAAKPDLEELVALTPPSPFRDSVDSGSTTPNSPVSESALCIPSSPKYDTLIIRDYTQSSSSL
The test can be described thus: In vitro cell-based FLIPR calcium assay for positive modulation of the activation of mGluR5 by glutamate (PAM EC50). The following applies: HEK293/GLAST cells expressing recombinant human mGluR5; FLIPR calcium signal; glutamate added at its EC20; read-out: mGluR5 PAM EC50. In a few lines: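 PAM activity was measured as FLIPR calcium fluorescence in the presence of an EC20 glutamate concentration determined daily from a glutamate concentration-response curve. Cells were HEK293/GLAST clones expressing mGluR5, dye-loaded at 25 °C for 45–60 min in HEPES-buffered HBSS; vehicle control was 0.3% DMSO.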
For orientation: EC50 means the concentration needed to bring the measured effect to its halfway point. Consider `CC1(C)Cc2nc3cc(C#Cc4ccccn4)cnc3c(=O)n2C1` [Example 11.10, 7,7-dimethyl-3-(pyridin-2-ylethynyl)-7,8-dihydropyrido[3,2-d]pyrrolo[1,2-a]pyrimidin-10(6H)-one], for which the EC50 fell in the range of 30 to 100 nM.

Take `CC1Cc2nc3cc(C#Cc4ccccn4)cnc3c(=O)n2C1` (stereo not drawn) [Example 11.13, 7-methyl-3-(pyridin-2-ylethynyl)-7,8-dihydropyrido[3,2-d]pyrrolo[1,2-a]pyrimidin-10(6H)-one]: the 50% effective concentration (EC50) was 300 to 1000 nM. The same measure, in the same setting: the value for `CC1(C)CCn2c(nc3nc(C#Cc4ccccn4)ccc3c2=O)C1` [Example 12.2, 9,9-dimethyl-2-(pyridin-2-ylethynyl)-7,8,9,10-tetrahydro-5H-dipyrido[1,2-a:2′,3′-d]pyrimidin-5-one] was 30 to 100 nM; that for `CC1(C)CCc2nc3nc(C#Cc4ccccn4)ccc3c(=O)n2C1` [Example 12.3, 8,8-dimethyl-2-(pyridin-2-ylethynyl)-7,8,9,10-tetrahydro-5H-dipyrido[1,2-a:2′,3′-d]pyrimidin-5-one] was 30 to 100 nM.

As to `O=c1c2ccc(C#Cc3ccccn3)nc2nc2n1CCCCC2` [Example 12.5, 2-(pyridin-2-ylethynyl)-8,9,10,11-tetrahydropyrido[2′,3′:4,5]pyrimido[1,2-a]azepin-5(7H)-one], the EC50 lay in the range of 300 to 1000 nM.

Consider `CC(O)c1cnc2cc(C#Cc3cccc(F)c3)ccn2c1=O` (stereo not drawn) [Example 13.1, 8-((3-fluorophenyl)ethynyl)-3-(1-hydroxyethyl)-4H-pyrido[1,2-a]pyrimidin-4-one], for which the EC50 was 100 to 300 nM.

On to `CCOC(C)c1cnc2cc(C#Cc3cccc(F)c3)ccn2c1=O` (stereo not drawn) [Example 13.2, 3-(1-ethoxyethyl)-8-((3-fluorophenyl)ethynyl)-4H-pyrido[1,2-a]pyrimidin-4-one], for which the EC50 was < 10 nM.

Turning to `CCNC(=O)c1cnc2cc(C#Cc3cccc(F)c3)ccn2c1=O` [Example 13.5, N-ethyl-8-((3-fluorophenyl)ethynyl)-4-oxo-4H-pyrido[1,2-a]pyrimidine-3-carboxamide], the EC50 was in the range of 10 to 30 nM. Consider `O=c1c(CO)cnc2cc(C#Cc3cccc(F)c3)ccn12` [Example 13.6, 8-((3-fluorophenyl)ethynyl)-3-(hydroxymethyl)-4H-pyrido[1,2-a]pyrimidin-4-one], for which the EC50 is 300 to 1000 nM.

As for `COCc1cnc2cc(C#Cc3cccc(F)c3)ccn2c1=O` [Example 13.7, 8-((3-fluorophenyl)ethynyl)-3-(methoxymethyl)-4H-pyrido[1,2-a]pyrimidin-4-one], the EC50 is 30 to 100 nM. In the case of `CCOCc1cnc2cc(C#Cc3cccc(F)c3)ccn2c1=O` [Example 13.8, 3-(ethoxymethyl)-8-((3-fluorophenyl)ethynyl)-4H-pyrido[1,2-a]pyrimidin-4-one], the EC50 fell in the range of 30 to 100 nM.

In the case of `COCCc1cnc2cc(C#Cc3cccc(F)c3)ccn2c1=O` [Example 13.10, 8-((3-fluorophenyl)ethynyl)-3-(2-methoxyethyl)-4H-pyrido[1,2-a]pyrimidin-4-one], the EC50 lay within 10 to 30 nM. `COCCc1cnc2cc(C#Cc3ccc(F)cc3)ccn2c1=O` [Example 13.11, 8-((4-fluorophenyl)ethynyl)-3-(2-methoxyethyl)-4H-pyrido[1,2-a]pyrimidin-4-one]: the EC50 lay within 10 to 30 nM.

With `CCOCCc1cnc2cc(C#Cc3cccc(F)c3)ccn2c1=O` [Example 13.13, 3-(2-ethoxyethyl)-8-((3-fluorophenyl)ethynyl)-4H-pyrido[1,2-a]pyrimidin-4-one], the EC50 is 30 to 100 nM. On to `CC(C)(O)c1cnc2cc(C#Cc3cccc(F)c3)ccn2c1=O` [Example 13.18, 8-((3-fluorophenyl)ethynyl)-3-(2-hydroxypropan-2-yl)-4H-pyrido[1,2-a]pyrimidin-4-one], for which the EC50 lay within 100 to 300 nM. The same measure, in the same setting: the value for `O=c1c2c(nc3cc(C#Cc4ccccn4)ccn13)CCCC2` [Example 15.1, 7-(pyridin-2-ylethynyl)-3,4-dihydro-1H-pyrido[2,1-b]quinazolin-11(2H)-one] was 30 to 100 nM; that for `CC1CCc2c(nc3cc(C#Cc4ccccn4)ccn3c2=O)C1` (stereo not drawn) [Example 15.2, 3-methyl-7-(pyridin-2-ylethynyl)-3,4-dihydro-1H-pyrido[2,1-b]quinazolin-11(2H)-one] was < 10 nM; that for `CC1(C)CCc2c(nc3cc(C#Cc4ccccn4)ccn3c2=O)C1` [Example 15.3, 3,3-dimethyl-7-(pyridin-2-ylethynyl)-3,4-dihydro-1H-pyrido[2,1-b]quinazolin-11(2H)-one] was < 10 nM. Take `N#CCN1CCc2nc3cc(C#Cc4ccccn4)ccn3c(=O)c2C1` [Example 15.6, 2-(11-oxo-7-(pyridin-2-ylethynyl)-3,4-dihydro-1H-dipyrido[1,2-a:4′,3′-d]pyrimidin-2(11H)-yl)acetonitrile]: the EC50 was 300 to 1000 nM.

For the compound `O=c1c2c(nc3cc(C#Cc4ccccn4)ccn13)C[C@@H]1CCCN1C2` [Example 15.7, (S)-10-(pyridin-2-ylethynyl)-2,3,13,13a-tetrahydro-1H-pyrido[1′,2′:1,2]pyrimido[5,4-f]indolizin-6(5H)-one], the EC50 is 300 to 1000 nM. For the compound `O=c1c2c(nc3cc(C#Cc4ccc(F)cc4)ccn13)CCCCC2` [Example 16.1, 3-((4-fluorophenyl)ethynyl)-7,8,9,10-tetrahydrocyclohepta[d]pyrido[1,2-a]pyrimidin-11(6H)-one], the EC50 is < 10 nM. Regarding `O=c1c2c(nc3cc(C#Cc4ccccc4)ccn13)CCCCC2` [Example 16.2, 3-(phenylethynyl)-7,8,9,10-tetrahydrocyclohepta[d]pyrido[1,2-a]pyrimidin-11(6H)-one], the EC50 is < 10 nM. For the compound `O=c1c2c(nc3cc(C#Cc4ccccn4)ccn13)CCCCC2` [Example 16.3, 3-(pyridin-2-ylethynyl)-7,8,9,10-tetrahydrocyclohepta[d]pyrido[1,2-a]pyrimidin-11(6H)-one], the concentration giving a half-maximal response (EC50) is < 10 nM. The same measure, in the same setting: the value for `O=c1c2c(nc3cc(C#Cc4cccnc4)ccn13)CCCCC2` [Example 16.4, 3-(pyridin-3-ylethynyl)-7,8,9,10-tetrahydrocyclohepta[d]pyrido[1,2-a]pyrimidin-11(6H)-one] was < 10 nM; that for `O=c1c2c(nc3cc(C#Cc4ccncc4)ccn13)CCCCC2` [Example 16.5, 3-(pyridin-4-ylethynyl)-7,8,9,10-tetrahydrocyclohepta[d]pyrido[1,2-a]pyrimidin-11(6H)-one] was < 10 nM.

As for `CC1CCc2nc3cc(C#Cc4ccccn4)ccn3c(=O)c2CC1` (stereo not drawn) [Example 16.6, 8-methyl-3-(pyridin-2-ylethynyl)-7,8,9,10-tetrahydrocyclohepta[d]pyrido[1,2-a]pyrimidin-11(6H)-one], the EC50 is < 10 nM. In the case of `CN1CCc2nc3cc(C#Cc4ccc(F)cc4)ccn3c(=O)c2CC1` [Example 16.7, 8-((4-fluorophenyl)ethynyl)-3-methyl-2,3,4,5-tetrahydropyrido[1′,2′:1,2]pyrimido[4,5-d]azepin-12(1H)-one], the EC50 is 300 to 1000 nM. `O=c1c2c(nc3cc(C#Cc4ccccc4)ccn13)CCCCCC2` [Example 17.1, 3-(phenylethynyl)-8,9,10,11-tetrahydro-6H-cycloocta[d]pyrido[1,2-a]pyrimidin-12(7H)-one]: the EC50 is < 10 nM. On to `O=c1c2c(nc3cc(C#Cc4ccccn4)ccn13)CCCCCC2` [Example 17.2, 3-(pyridin-2-ylethynyl)-8,9,10,11-tetrahydro-6H-cycloocta[d]pyrido[1,2-a]pyrimidin-12(7H)-one], for which the EC50 is < 10 nM. `O=c1c2c(nc3cc(C#Cc4cccnc4)ccn13)CCCCCC2` [Example 17.3, 3-(pyridin-3-ylethynyl)-8,9,10,11-tetrahydro-6H-cycloocta[d]pyrido[1,2-a]pyrimidin-12(7H)-one]: the concentration for a half-maximal effect (EC50) is < 10 nM. For the compound `O=c1c2c(nc3cc(C#Cc4ccncc4)ccn13)CCCCCC2` [Example 17.4, 3-(pyridin-4-ylethynyl)-8,9,10,11-tetrahydro-6H-cycloocta[d]pyrido[1,2-a]pyrimidin-12(7H)-one], the EC50 is < 10 nM. For `O=c1c2c(nc3cc(C#Cc4ccc(F)cc4)ccn13)CCCCCC2` [Example 17.5, 3-((4-fluorophenyl)ethynyl)-8,9,10,11-tetrahydro-6H-cycloocta[d]pyrido[1,2-a]pyrimidin-12(7H)-one], the EC50 was < 10 nM.

Take `O=c1[nH]ccc2cc(C#Cc3cccc(F)c3)ccc12` [Example 18.1, 6-((3-fluorophenyl)ethynyl)isoquinolin-1(2H)-one]: the EC50 fell in the range of 300 to 1000 nM. As for `CCCn1ccc2cc(C#Cc3ccc(F)cc3)ccc2c1=O` [Example 18.2, 6-((4-fluorophenyl)ethynyl)-2-propylisoquinolin-1 (2H)-one], the EC50 lay in the range of 300 to 1000 nM. As to `Fc1ccc(C#Cc2ccc3c(c2)N=C2CCCCCN2C3)cc1` [Example 19.1, 3-((4-fluorophenyl)ethynyl)-6,7,8,9,10,12-hexahydroazepino[2,1-b]quinazoline], the EC50 is 30 to 100 nM. With `O=c1c2ccc(/C=C/c3ccccc3)cc2nc2n1CCCCC2` [Example 20.2, (E)-3-styryl-7,8,9,10-tetrahydroazepino[2,1-b]quinazolin-12(6H)-one], the EC50 was < 10 nM. On to `CC1CCc2nc3cc(/C=C/c4ccccn4)ccc3c(=O)n2CC1` (stereo not drawn) [Example 20.3, (E)-8-methyl-3-(2-(pyridin-2-yl)vinyl)-7,8,9,10-tetrahydroazepino[2,1-b]quinazolin-12(6H)-one], for which the EC50 was in the range of 100 to 300 nM. As to `CC1Cc2nc3cc(/C=C/c4ccccc4)ccc3c(=O)n2C1` (stereo not drawn) [Example 20.4, (E)-2-methyl-6-styryl-2,3-dihydropyrrolo[2,1-b]quinazolin-9(1H)-one], the EC50 fell in the range of 30 to 100 nM.

Still in this test, the particulars now being: mGluR5 PAM EC50, HEK293/GLAST cells expressing recombinant human mGluR5; FLIPR calcium signal; glutamate added at its EC20.
`CC1(C)CCc2nc3cc(C#Cc4ccccn4)ccn3c(=O)c2C1` [Example 15.4, 2,2-dimethyl-7-(pyridin-2-ylethynyl)-3,4-dihydro-1H-Pyrido[2,1-b]quinazolin-11(2H)-one]: the EC50 is < 10 nM.
